Measurements from ChEMBL document CHEMBL1201862, “PubChem BioAssay data set” (2004).
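The compound was tested at five concentrations on cells cultured in 96-well plates, with a 48-hour exposure period. The concentration for 50% growth inhibition is given as GI50.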 Calls of active or inactive are those of the source. Cut-off read from the data, not from the text of the source: active = GI50 up to about 1.1 µM and inactive = higher.

Tests used:
Assay in all cases: DTP human tumour cell line panel, 48 h
NCI/ADR-RES = system: NCI/ADR-RES
ACHN = system: ACHN
TK-10 = system: TK-10
HOP-62 = system: HOP-62
SF-268 = system: SF-268
COLO 205 = system: COLO 205
NCI-H522 = system: NCI-H522
MCF7 = system: MCF7
HT-29 = system: HT-29
SNB-19 = system: SNB-19
U-251 = system: U-251
UO-31 = system: UO-31
A498 = system: A498
UACC-257 = system: UACC-257
Malme-3M = system: Malme-3M
OVCAR-3 = system: OVCAR-3
OVCAR-5 = system: OVCAR-5
CCRF-CEM = system: CCRF-CEM
RPMI-8226 = system: RPMI-8226
Hs-578T = system: Hs-578T

SMILES	GI50 (NCI/ADR-RES)	GI50 (ACHN)	GI50 (TK-10)	GI50 (HOP-62)	GI50 (SF-268)	GI50 (COLO 205)	GI50 (NCI-H522)	GI50 (MCF7)	GI50 (HT-29)	GI50 (SNB-19)	GI50 (U-251)	GI50 (UO-31)	GI50 (A498)	GI50 (UACC-257)	GI50 (Malme-3M)	GI50 (OVCAR-3)	GI50 (OVCAR-5)	GI50 (CCRF-CEM)	GI50 (RPMI-8226)	GI50 (Hs-578T)
CCOP(=O)(OCC)/C(C#N)=C/c1cccn1CC(C)C	> 100 µM (inactive)	> 100 µM (inactive)	> 100 µM (inactive)	> 100 µM (inactive)	> 100 µM (inactive)	> 100 µM (inactive)	81.8 µM (inactive)	> 100 µM (inactive)	> 100 µM (inactive)	> 100 µM (inactive)	> 100 µM (inactive)	61.4 µM (inactive)	> 100 µM (inactive)	> 100 µM (inactive)	> 100 µM (inactive)	> 100 µM (inactive)	> 100 µM (inactive)			
O=CC12c3ccccc3C(c3ccccc31)C1C(=O)NC(=O)C12 (configuration not stated)	> 100 µM (inactive)	> 100 µM (inactive)	> 100 µM (inactive)	56 µM (inactive)	> 100 µM (inactive)	> 100 µM (inactive)	53 µM (inactive)	0.953 µM (active)	> 100 µM (inactive)	> 100 µM (inactive)	> 100 µM (inactive)	44.7 µM (inactive)	10.8 µM (inactive)	> 100 µM (inactive)	90.2 µM (inactive)	> 100 µM (inactive)	> 100 µM (inactive)	41.7 µM (inactive)		
CCOC(=O)C1CC(=O)C=C2CCCCC21 (configuration not stated)		> 100 µM (inactive)	> 100 µM (inactive)	> 100 µM (inactive)	> 100 µM (inactive)	> 100 µM (inactive)	> 100 µM (inactive)		> 100 µM (inactive)	> 100 µM (inactive)	> 100 µM (inactive)	> 100 µM (inactive)	> 100 µM (inactive)	> 100 µM (inactive)	> 100 µM (inactive)	> 100 µM (inactive)	> 100 µM (inactive)	> 100 µM (inactive)	> 100 µM (inactive)	
Nc1ccc2nc3n(c2c1)C(=O)c1ccccc1-3	> 100 µM (inactive)	> 100 µM (inactive)	> 100 µM (inactive)		> 100 µM (inactive)	> 100 µM (inactive)	> 100 µM (inactive)	> 100 µM (inactive)	> 100 µM (inactive)	> 100 µM (inactive)	> 100 µM (inactive)	> 100 µM (inactive)		> 100 µM (inactive)	> 100 µM (inactive)	> 100 µM (inactive)	> 100 µM (inactive)	> 100 µM (inactive)	> 100 µM (inactive)	
CCCCCCCCC[C@@H]1CC(=O)OCC2OC(O[C@H](CCCCCCCCC)CC(=O)OCC3OC(O[C@H](CCCCCCCCC)CC(=O)OCC4OC(O1)C(O)C(O)C4O)C(O)C(O)C3O)C(O)C(O)C2O (some centres not stated)		13.2 µM (inactive)	8.15 µM (inactive)	12.3 µM (inactive)	2.94 µM (inactive)	2.52 µM (inactive)	8.73 µM (inactive)		11.9 µM (inactive)	8.89 µM (inactive)	8.28 µM (inactive)	9.4 µM (inactive)	14.5 µM (inactive)	10.8 µM (inactive)	8.83 µM (inactive)	18 µM (inactive)	10.7 µM (inactive)	5.79 µM (inactive)	14.5 µM (inactive)	
Cc1nc2ccccc2c(=O)n1NC(=O)c1ccccc1O		> 100 µM (inactive)	> 100 µM (inactive)	> 100 µM (inactive)	> 100 µM (inactive)	> 100 µM (inactive)	> 100 µM (inactive)	> 100 µM (inactive)	> 100 µM (inactive)	> 100 µM (inactive)	> 100 µM (inactive)	> 100 µM (inactive)	> 100 µM (inactive)	> 100 µM (inactive)		> 100 µM (inactive)	> 100 µM (inactive)	> 100 µM (inactive)	> 100 µM (inactive)	> 100 µM (inactive)
CC(C)(C)O/C=C1/C(=O)OC2C[C@@H](O[Si](C)(C)C(C)(C)C)CC12 (some centres not stated)	55.1 µM (inactive)	72.6 µM (inactive)	> 100 µM (inactive)	> 100 µM (inactive)	80.9 µM (inactive)	72.9 µM (inactive)	27.6 µM (inactive)	36.1 µM (inactive)	68.1 µM (inactive)	94.2 µM (inactive)	48 µM (inactive)	52.2 µM (inactive)	> 100 µM (inactive)	41.5 µM (inactive)	98.9 µM (inactive)	48.4 µM (inactive)	> 100 µM (inactive)	42.7 µM (inactive)		
CO[C@@H](C(=O)OC1C=CC2(CC1)C(=O)N(C)c1ccccc12)c1ccccc1 (some centres not stated)	45.1 µM (inactive)	> 100 µM (inactive)	> 100 µM (inactive)	> 100 µM (inactive)		60 µM (inactive)		50.8 µM (inactive)	65.8 µM (inactive)	> 100 µM (inactive)	> 100 µM (inactive)	> 100 µM (inactive)	> 100 µM (inactive)	65.3 µM (inactive)		> 100 µM (inactive)	> 100 µM (inactive)	> 100 µM (inactive)	50.6 µM (inactive)	
CC1(C)CC(=O)C(C(=O)Nc2cccs2)=C(O)C1		32.7 µM (inactive)	64.6 µM (inactive)	34.8 µM (inactive)	> 100 µM (inactive)	19.6 µM (inactive)	37.2 µM (inactive)		49.1 µM (inactive)	31.1 µM (inactive)	31.8 µM (inactive)	28.8 µM (inactive)	28.8 µM (inactive)	47.9 µM (inactive)	32.1 µM (inactive)	29.4 µM (inactive)	44 µM (inactive)	23 µM (inactive)	31 µM (inactive)	
COCCOCOC(C)(C)[C@H](CCOC(C)=O)O[Si](c1ccccc1)(c1ccccc1)C(C)(C)C		15.2 µM (inactive)	22.8 µM (inactive)	23.3 µM (inactive)	34.6 µM (inactive)	3.44 µM (inactive)	5.52 µM (inactive)		12.9 µM (inactive)	49 µM (inactive)	12.3 µM (inactive)	13.5 µM (inactive)	20.4 µM (inactive)	7.19 µM (inactive)	16.6 µM (inactive)	11 µM (inactive)	16.8 µM (inactive)	4.97 µM (inactive)	3.96 µM (inactive)	
Cc1ccc(Nc2nc3c(s2)C(=O)c2ccccc2C3=O)c(C)c1		15.7 µM (inactive)	21.8 µM (inactive)	16.5 µM (inactive)	11.1 µM (inactive)	18.9 µM (inactive)	3.14 µM (inactive)		20.9 µM (inactive)	14.6 µM (inactive)	18.9 µM (inactive)	14.3 µM (inactive)	34 µM (inactive)	8.13 µM (inactive)	13.6 µM (inactive)	13.7 µM (inactive)	19.8 µM (inactive)	4.13 µM (inactive)	12.1 µM (inactive)	
[N-]=[N+]=CC(=O)OC1CCc2ccccc21 (configuration not stated)		9.95 µM (inactive)	59.6 µM (inactive)	55.2 µM (inactive)	> 100 µM (inactive)	73.1 µM (inactive)	> 100 µM (inactive)	71.1 µM (inactive)	> 100 µM (inactive)	> 100 µM (inactive)	> 100 µM (inactive)	13.7 µM (inactive)	> 100 µM (inactive)	> 100 µM (inactive)	> 100 µM (inactive)	> 100 µM (inactive)	46.5 µM (inactive)	> 10 µM (inactive)	> 100 µM (inactive)	
NC(=O)CCC(NC(=O)c1c2ccccc2nc2ccccc12)C(=O)O (configuration not stated)	> 100 µM (inactive)	> 100 µM (inactive)	> 100 µM (inactive)	> 100 µM (inactive)	> 100 µM (inactive)	> 100 µM (inactive)	> 100 µM (inactive)	> 100 µM (inactive)	> 100 µM (inactive)	> 100 µM (inactive)	> 100 µM (inactive)	> 100 µM (inactive)	> 100 µM (inactive)	> 100 µM (inactive)	> 100 µM (inactive)	> 100 µM (inactive)	> 100 µM (inactive)	> 100 µM (inactive)	> 100 µM (inactive)	
COc1ccc2c(c1)Oc1cc(O)ccc1[C@H]2c1ccccc1C(=O)NC(C)c1ccccc1 (some centres not stated)		13.2 µM (inactive)	24.2 µM (inactive)	18.8 µM (inactive)	19 µM (inactive)	17.1 µM (inactive)	12 µM (inactive)		19.9 µM (inactive)	17.6 µM (inactive)	14.4 µM (inactive)	10.9 µM (inactive)	16.9 µM (inactive)	17.4 µM (inactive)	20.4 µM (inactive)	12.3 µM (inactive)	15.3 µM (inactive)	16 µM (inactive)	4.66 µM (inactive)	
O=C1NC(Cc2ccc(O)cc2)C(=O)N2CCCC12 (configuration not stated)		> 100 µM (inactive)	> 100 µM (inactive)	> 100 µM (inactive)	> 100 µM (inactive)	> 100 µM (inactive)	> 100 µM (inactive)		> 100 µM (inactive)	> 100 µM (inactive)	> 100 µM (inactive)	> 100 µM (inactive)	> 100 µM (inactive)	> 100 µM (inactive)	> 100 µM (inactive)	> 100 µM (inactive)	> 100 µM (inactive)	> 100 µM (inactive)	> 100 µM (inactive)	
O=C(/C=C/c1cccs1)c1ccsc1	35.2 µM (inactive)	20.2 µM (inactive)	22.7 µM (inactive)	73.5 µM (inactive)	45.1 µM (inactive)	18.1 µM (inactive)		10.4 µM (inactive)	19.3 µM (inactive)	18.9 µM (inactive)	> 10 µM (inactive)	17.6 µM (inactive)	38.7 µM (inactive)	23 µM (inactive)	22.2 µM (inactive)		26.9 µM (inactive)	16.5 µM (inactive)	15.9 µM (inactive)	
